The Aqueous solubility is the dissolved amount per volume that the medium holds. Read a high Aqueous solubility as much dissolved substance. Usually solubility stands for the concentration that dissolves in the medium under given conditions. Low readings indicate a poorly soluble substance, high ones a readily soluble substance.

The source of these data is US20230374071A1, “COMPOSITIONS FOR INDUCING URINARY VOIDING AND DEFECATION” (Dignify Therapeutics, LLC, priority 2020, published 2023).

The nature of data set [1]: Aqueous solubility of lyophilized peptide analogs (observed dissolution in Dulbecco's phosphate buffered saline and water). The class given is physicochemical. As to conditions: observed dissolution in both Dulbecco's phosphate buffered saline and water; 5 mg/mL was the maximum tested. As to the method:
Peptide analogs of NKA were purified to ≥95% purity. […] Compounds A, B, H, and J (SEQ ID NO: 1, 2, 8, and 10) were considered to be aqueous insoluble (<0.1 mg/mL). *Aqueous solubilities of the lyophilized peptide analogs were determined based on the observed dissolution in both Dulbecco's phosphate buffered saline and water. gc=Gly-(R-gamma-lactam)-Leu or (S)-2-((R)-3-amino)-2-oxopyrrolidin-1-yl)-4-methylpantanoyl.

The target in data set [2] is T1, human NK2 receptor (hNK2R) (Homo sapiens, UniProt P21452).
T1 construct: expressed in transfected cells; host or cells: CHO (CHO-hNK2)
T1 sequence (P21452 1-398): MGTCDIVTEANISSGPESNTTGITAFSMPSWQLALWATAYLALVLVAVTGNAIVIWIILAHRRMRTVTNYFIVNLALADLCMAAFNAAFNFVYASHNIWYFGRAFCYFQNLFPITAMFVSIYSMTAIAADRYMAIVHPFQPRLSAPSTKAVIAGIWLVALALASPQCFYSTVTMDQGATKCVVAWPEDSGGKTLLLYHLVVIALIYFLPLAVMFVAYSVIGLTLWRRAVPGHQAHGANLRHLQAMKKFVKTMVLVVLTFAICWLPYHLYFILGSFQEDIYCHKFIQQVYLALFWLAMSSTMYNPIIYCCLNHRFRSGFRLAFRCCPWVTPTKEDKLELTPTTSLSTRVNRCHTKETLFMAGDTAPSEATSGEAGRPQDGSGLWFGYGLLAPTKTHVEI
In words: Intracellular calcium mobilization (Fluo-4 AM, FLIPR) in CHO cells expressing recombinant hNK2R. The class given is cell-based. As to conditions: for EC50: calcium mobilization, CHO-hNK2 cells, agonist potency, read-out: hNK2R pEC50 (converted); for selectivity for activation of hNK2Rs vs hNK1Rs: from ratios of EC50s; for calcium response at hNK2R: tested at concentrations up to 10 μM. How it is done:
(§1) Intracellular Calcium Mobilization: The agonist efficacy of compounds A-J at recombinant hNK2R or hNK1Rs expressed in CHO cells was assessed by measuring intracellular calcium mobilization using the calcium-sensitive dye Fluo-4 AM (MOLECULAR PROBES, EUGENE, OR, USA) and a Fluorometric Imaging Plate Reader (FLIPR, MOLECULAR DEVICES, CA, USA). CHO-hNK1 and CHO-hNK2 cells were seeded into black walled clear-bottom 384-well plates) at a density of 10,000 and 15,000 cells per well in 50 μL culture media, respectively, and grown overnight at 37° C. in a humidified CO2-incubator. Cells were washed in washing buffer using a Microplate Washer BIOTEK 384 instrument, leaving 20 μL of buffer per well after the final aspiration. Cells were then incubated at 37° C. with the cytoplasmic Ca^2+ indicator Fluo-4 AM at 2 μM in assay buffer containing 2.5 mM probenecid and 0.02% Pluronic F-127 for 45-60 min (cell loading). Cells were then washed 3 times in washing buffer using a Microplate Washer BIOTEK 384 instrument, leaving 30 μL of buffer in each well after the last wash. Loaded cell plates were transferred to the FLIPR Tetra instrument and calcium responses monitored as described below. A dual read-out FLIPR protocol was used, allowing for characterization of both agonist and antagonist profiles. For quality control, in each compound plate the signal was monitored by evaluating the responses to the reference standards (NKA and Substance P).
(§2) Twelve concentrations of each of the compounds A-J were evaluated for their ability to increase intracellular calcium levels with respect to the agonist reference standard (NKA or Substance P), and the pEC50 value was calculated. […] Concentration response curves of compounds were run in duplicate on two different occasions from the same stock solutions. Test solutions were prepared from 10 mM stock solutions in DMSO and 1 μL of each solution was stamped into V-bottom assay plates containing 49 μL assay buffer. The final concentration of DMSO was 0.5% in each well.
(§3) The results of the intracellular calcium mobilization by in vitro activation of recombinant hNK2Rs or hNK1Rs expressed in CHO cells as described above for the 10 peptide analogs A-J, is shown in Table 3 below. In addition, FIGS. 3A-3C are exemplary graphs showing stimulation of [Ca^2+] response in CHO cells expressing human NK2 or NK1 receptors by Compound A, Compound B, and Compound G, respectively. In FIGS. 3A-3C, data are expressed as % of the maximal response to substance P for NK1 receptors, or NKA for NK2 receptors. Each data point is the mean±SD from duplicate determinations.

For data set [3], the target named is T2, human NK1 receptor (hNK1R) (Homo sapiens, UniProt P25103).
T2 construct: expressed in transfected cells; host or cells: CHO (CHO-hNK1)
In words: Intracellular calcium mobilization (Fluo-4 AM, FLIPR) in CHO cells expressing recombinant hNK1R. The format is cell-based. To be noted: for Emax: CHO, calcium response, CHO cells, full or partial agonists, read-out: maximal response at hNK1R compared to Substance P; for EC50: calcium mobilization, CHO-hNK1 cells, agonist potency, read-out: hNK1R pEC50 (converted); for calcium response at hNK1R: tested at concentrations up to 10 μM. As to the method: as §1, §2, §3

In data set [4] the target is T3, human neurokinin 2 receptor (human, UniProt P21452 1-398).
T3 sequence (looked up): T1 sequence (P21452 1-398)
In words: cell-based or functional assay.

Data set [5] addresses human neurokinin 1 receptor (human, UniProt P25103 1-407). In words: cell-based or functional assay.

In brackets after ≈: the same amount, converted by molar mass. Entries after “also recorded” stand apart in the source; their conditions may differ. Non-standard residues stand in square brackets, D forms with d. Residues, ends and D or L forms follow the SMILES beside them. No end group written: not given here. Nle = CCCC[C@H](N)C(=O)O; βAla = NCCC(=O)O

T2 sequence (P25103 whole entry): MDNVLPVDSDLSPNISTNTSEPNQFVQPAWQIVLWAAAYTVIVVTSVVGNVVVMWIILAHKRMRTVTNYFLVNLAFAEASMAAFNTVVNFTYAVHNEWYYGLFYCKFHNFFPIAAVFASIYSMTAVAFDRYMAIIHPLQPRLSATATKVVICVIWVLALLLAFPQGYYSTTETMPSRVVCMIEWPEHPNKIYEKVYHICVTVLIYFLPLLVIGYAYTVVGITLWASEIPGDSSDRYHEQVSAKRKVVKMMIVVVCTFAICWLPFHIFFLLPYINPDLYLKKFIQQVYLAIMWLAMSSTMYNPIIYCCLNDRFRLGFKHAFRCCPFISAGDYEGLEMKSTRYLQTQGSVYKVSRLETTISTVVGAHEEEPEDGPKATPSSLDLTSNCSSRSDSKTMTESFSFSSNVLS
human neurokinin 1 receptor, sequence (P25103 whole entry): as above

As for `CSCC[C@H](NC(=O)[C@H](CC(C)C)N1CC[C@@H](NC(=O)[C@@H](NC(=O)[C@H](Cc2ccccc2)NC(=O)[C@H](CO)NC(=O)[C@@H](N)CC(=O)O)C(C)C)C1=O)C(N)=O` [Compound A, Asp-Ser-Phe-Val-gc-Met-NH2], in data set [1], the Aqueous solubility was less than 100 µg/mL and the solubility is less than 100 µg/mL. Also, in data set [2], the EC50 was 0.676 nM and the “selectivity for activation of hNK2Rs vs hNK1Rs” value (“selectivity for activation” below) is on record as more than 700 fold. In data set [3], the Emax is not below 85% and the EC50 was 490 nM.
In data set [1], `CCCC[C@H](NC(=O)[C@H](CC(C)C)N1CC[C@@H](NC(=O)[C@@H](NC(=O)[C@H](Cc2ccccc2)NC(=O)[C@H](CO)NC(=O)[C@@H](N)CC(=O)O)C(C)C)C1=O)C(N)=O` [Compound B, Asp-Ser-Phe-Val-gc-Nle-NH2] registered an Aqueous solubility of less than 100 µg/mL and a solubility of less than 100 µg/mL. In addition, in data set [2], the EC50 is 8.51 nM. In addition, in data set [3], the Emax was not below 73% and the EC50 was 1780 nM.
With `CSCC[C@H](NC(=O)[C@H](CC(C)C)N1CC[C@@H](NC(=O)[C@@H](NC(=O)[C@H](Cc2ccccc2)NC(=O)[C@H](CCCCN)NC(=O)[C@@H](N)CC(=O)O)C(C)C)C1=O)C(N)=O` [Compound C, Asp-Lys-Phe-Val-gc-Met-NH2], the solubility in data set [1] came to 5000 µg/mL (≈ 5.99 mM). The figures for the EC50 in data set [2] and in data set [3] were 0.427 nM and 53.7 nM, respectively.
The corresponding values for `CCCC[C@H](NC(=O)[C@H](CC(C)C)N1CC[C@@H](NC(=O)[C@@H](NC(=O)[C@H](Cc2ccccc2)NC(=O)[C@H](CCCCN)NC(=O)[C@@H](N)CC(=O)O)C(C)C)C1=O)C(N)=O` [Compound D, Asp-Lys-Phe-Val-gc-Nle-NH2] are 5000 µg/mL (≈ 6.13 mM), 3.63 nM and 479 nM.
Molecule `CSCC[C@H](NC(=O)[C@H](CC(C)C)N1CC[C@@H](NC(=O)[C@@H](NC(=O)[C@H](Cc2ccccc2)NC(=O)[C@H](CCCNC(=N)N)NC(=O)[C@@H](N)CC(=O)O)C(C)C)C1=O)C(N)=O` [Compound E, Asp-Arg-Phe-Val-gc-Met-NH2] showed a solubility in data set [1] of 5000 µg/mL (≈ 5.8 mM). Further, the figures for the EC50 in data set [2] and in data set [3] were 0.195 nM and 17.4 nM, respectively.
Molecule `CCCC[C@H](NC(=O)[C@H](CC(C)C)N1CC[C@@H](NC(=O)[C@@H](NC(=O)[C@H](Cc2ccccc2)NC(=O)[C@H](CCCNC(=N)N)NC(=O)[C@@H](N)CC(=O)O)C(C)C)C1=O)C(N)=O` [Compound F, Asp-Arg-Phe-Val-gc-Nle-NH2] had a solubility in data set [1] of 5000 µg/mL (≈ 5.92 mM). Further, the values for the EC50 in data set [2] and in data set [3] were 2.51 nM and 234 nM, respectively.
Consider `CCCC[C@H](NC(=O)[C@H](CC(C)C)N1CC[C@@H](NC(=O)[C@@H](NC(=O)[C@H](Cc2ccccc2)NC(=O)[C@H](CO)NC(=O)[C@H](CC(=O)O)NC(=O)[C@@H](N)CCCCN)C(C)C)C1=O)C(N)=O` [Compound G, Lys-Asp-Ser-Phe-Val-gc-Nle-NH2], for which the solubility in data set [1] was 5000 µg/mL (≈ 5.54 mM). In data set [2], the EC50 is 7.76 nM. Moreover, in data set [3], the Emax was not below 73% and the EC50 is 1620 nM.
In the case of `CCCC[C@H](NC(=O)[C@H](CC(C)C)NC(=O)CCNC(=O)[C@@H](NC(=O)[C@H](Cc1ccccc1)NC(=O)[C@H](CO)NC(=O)[C@H](CC(=O)O)NC(=O)[C@@H](N)CCCCN)C(C)C)C(N)=O` [Compound J, Lys-Asp-Ser-Phe-Val-(β-Ala)-Leu-Nle-NH2] (H-KDSFV[βAla]L[Nle]-NH2; N-terminus assumed), in data set [1], the Aqueous solubility is less than 100 µg/mL and the solubility is less than 100 µg/mL. Also, in data set [2], the EC50 is 13.2 nM and the “selectivity for activation” value is more than 20 fold. Besides, the Emax in data set [2] (calcium response, CHO cells, full agonists, read-out: maximal response at hNK2R compared to Neurokinin A) was not below 85%. In data set [3], the Emax is not below 85% and the EC50 is 302 nM.
For `CCCC[C@H](NC(=O)[C@H](CC(C)C)NC(=O)CCNC(=O)[C@@H](NC(=O)[C@H](Cc1ccccc1)NC(=O)[C@H](CO)NC(=O)[C@@H](N)CC(=O)O)C(C)C)C(N)=O` [H, Asp-Ser-Phe-Val-(β-Ala)-Leu-Nle-NH2] (H-DSFV[βAla]L[Nle]-NH2; N-terminus assumed), in data set [1], the Aqueous solubility is less than 100 µg/mL and the solubility was less than 100 µg/mL. Further, in data set [2], the EC50 is more than 10000 nM, the “selectivity for activation” value is on record as “did not exhibit selectivity for hNK2Rs; also recorded: do not exhibit selectivity for hNK2Rs” and the “calcium response at hNK2R” value was “did not elicit a significant calcium response; also recorded: do not elicit a significant calcium response”. Moreover, in data set [3], the EC50 was more than 10000 nM and the “calcium response at hNK1R” value is “did not elicit a significant calcium response; also recorded: do not elicit a significant calcium response”.
`CSCC[C@H](NC(=O)[C@H](CC(C)C)NC(=O)CCNC(=O)[C@@H](NC(=O)[C@H](Cc1ccccc1)NC(=O)[C@H](CO)NC(=O)[C@H](CC(=O)O)NC(=O)[C@@H](N)CCCCN)C(C)C)C(N)=O` [I, Lys-Asp-Ser-Phe-Val-(β-Ala)-Leu-Met-NH2] (H-KDSFV[βAla]LM-NH2; N-terminus assumed) had a solubility in data set [1] not below 5000 µg/mL. Also, in data set [2], the EC50 was more than 10000 nM, the “selectivity for activation” value is “did not exhibit selectivity for hNK2Rs; also recorded: do not exhibit selectivity for hNK2Rs” and the “calcium response at hNK2R” value is recorded as “did not elicit a significant calcium response; also recorded: do not elicit a significant calcium response”. Further, in data set [3], the EC50 was more than 10000 nM and the “calcium response at hNK1R” value was “did not elicit a significant calcium response; also recorded: do not elicit a significant calcium response”.

B1: Compound H (Asp-Ser-Phe-Val-(β-Ala)-Leu-Nle-NH2) (peptide)
peptide: DSFV[βAla]L[Nle]-NH2
modifications: N-terminus assumed
SMILES: CCCC[C@H](NC(=O)[C@H](CC(C)C)NC(=O)CCNC(=O)[C@@H](NC(=O)[C@H](Cc1ccccc1)NC(=O)[C@H](CO)NC(=O)[C@@H](N)CC(=O)O)C(C)C)C(N)=O
As to B1, the “hNK2R pEC50 (intracellular calcium mobilization, FLIPR, CHO cells)” value in data set [4] is less than 5. Besides, the “hNK1R pEC50 (intracellular calcium mobilization, FLIPR, CHO cells)” value in data set [5] was less than 5.

B2: Compound I (Lys-Asp-Ser-Phe-Val-(β-Ala)-Leu-Met-NH2) (peptide)
peptide: KDSFV[βAla]LM-NH2
modifications: N-terminus assumed
SMILES: CSCC[C@H](NC(=O)[C@H](CC(C)C)NC(=O)CCNC(=O)[C@@H](NC(=O)[C@H](Cc1ccccc1)NC(=O)[C@H](CO)NC(=O)[C@H](CC(=O)O)NC(=O)[C@@H](N)CCCCN)C(C)C)C(N)=O
As for B2, in data set [4], the “hNK2R pEC50 (intracellular calcium mobilization, FLIPR, CHO cells)” value was less than 5. The “hNK1R pEC50 (intracellular calcium mobilization, FLIPR, CHO cells)” value in data set [5] was less than 5.
